PMC6133092, “Synthesis of 2-alkylthio-N-(quinazolin-2-yl)benzenesulfonamide derivatives: anticancer activity, QSAR studies, and metabolic stability” (Monatshefte Fur Chemie, 2018)

Key:
HCT-116 (colon cancer) = assay: MTT cell viability assay, HCT-116; format: cell-based; conditions: Homo sapiens, 72 h, mean ± SD
Protocol: (§1) All chemicals, if not stated otherwise, were obtained from Sigma-Aldrich (St. Louis, MO, USA). The MCF-7 and HeLa cell lines were purchased from Cell Lines Services (Eppelheim, Germany), the HCT-116 cell line was purchased from ATCC (ATCC-No: CCL-247). Cells were cultured in Dulbecco’s modified Eagle’s medium (DMEM) supplemented with 10% fetal bovine serum, 2 mM glutamine, 100 units/cm^3 penicillin, and 100 μg/cm^3 streptomycin. Cultures were maintained in a humidified atmosphere with 5% CO2 at 37 °C in an incubator (Heraceus, HeraCell).
(§2) Cell viability was determined using the MTT (3-(4,5-dimethylthiazol-2-yl)-2,5-diphenyltetrazolium bromide) assay. Cells were seeded in 96-well plates at a density of 5 × 10^3 cells/well and treated for 72 h with the examined compounds in the concentration range 1–100 μM (1, 10, 25, 50, and 100 μM). Following treatment, MTT (0.5 mg/cm^3) was added to the medium and cells were further incubated for 2 h at 37 °C. Cells were lysed with DMSO and the absorbance of the formazan solution was measured at 550 nm with a plate reader (Victor, 1420 multilabel counter). […] The experiment was performed in triplicate. Values are expressed as the mean ± SD of at least three independent experiments.

HeLa (cervical cancer) = assay: MTT cell viability assay, HeLa; format: cell-based; conditions: Homo sapiens
Protocol: as §1, §2

MCF-7 (breast cancer) = assay: MTT cell viability assay, MCF-7; format: cell-based, human; conditions: Homo sapiens, MCF7, 72 h, mean ± SD
Protocol: All of the newly synthesized compounds 9–24 were evaluated for their effects on cell viability in three human cancer cell lines: HCT-116 (colon cancer), HeLa (cervical cancer), and MCF-7 (breast cancer). Cisplatin was used as reference drug. […] Considering the activity of derivatives 9–12, 15, 17, 18, and 21–24, it can be noticed that phenyl group as R^3 bring an increase of cytotoxicity in comparison with methyl in place of R^3. However, this impact seems to be the most important for compounds with the bulky group in R^1 and generally, it is less for a set of derivatives with methyl group substituted in R^1 (9–12).
as §1, §2

MOLT-4 = assay: NCI-60 single dose screen, MOLT-4; format: cell-based; conditions: Homo sapiens, Leukemia, single concentration 10^−5 M, read-out: IGP (inhibition growth percent) MOLT-4
Protocol: (§3) Aside from above, compounds 9–14 and 17–24 were also submitted to National Cancer Institute and evaluated for the cytotoxic effects toward 60 cell lines at a single dose of 10 μM (Table 2). […] As it was summarized in Table 2, leukemia RPMI-8226 and NSCLC A549/ATCC were most sensitive to compounds 18, 22, and 24. These derivatives in 10 μM concentration inhibited the growth of approximately 50% cells belonging to the above mention cell lines.
(§4) Cytotoxicity evaluation of compounds 9–14 and 17–24 was performed at the National Cancer Institute according to NCI-60 DTP human tumor cell line screen procedure.

RPMI-8226 = assay: NCI-60 single dose screen, RPMI-8226; format: cell-based; conditions: Homo sapiens, RPMI-8226, Leukemia; single concentration 10^−5 M; read-out: IGP (inhibition growth percent) RPMI-8226
Protocol: as §3, §4

SR = assay: NCI-60 single dose screen, SR; format: cell-based; conditions: Homo sapiens, Leukemia, single concentration 10^−5 M, read-out: IGP (inhibition growth percent) SR
Protocol: as §3, §4

A549/ATCC = assay: NCI-60 single dose screen, A549/ATCC; format: cell-based; conditions: Homo sapiens, A549, NSCLC; single concentration 10^−5 M; read-out: IGP (inhibition growth percent) A549/ATCC
Protocol: as §3, §4

EKVX = assay: NCI-60 single dose screen, EKVX; format: cell-based; conditions: Homo sapiens, NSCLC, single concentration 10^−5 M, read-out: IGP (inhibition growth percent) EKVX
Protocol: as §3, §4

NCI-H522 = assay: NCI-60 single dose screen, NCI-H522; format: cell-based; conditions: Homo sapiens, NSCLC, single concentration 10^−5 M, read-out: IGP (inhibition growth percent) NCI-H522
Protocol: as §3, §4

HCT-116 = assay: NCI-60 single dose screen, HCT-116; format: cell-based; conditions: Homo sapiens, Colon cancer, single concentration 10^−5 M, read-out: IGP (inhibition growth percent) HCT-116
Protocol: as §3, §4

UACC-62 = assay: NCI-60 single dose screen, UACC-62; format: cell-based; conditions: Homo sapiens, Melanoma, single concentration 10^−5 M, read-out: IGP (inhibition growth percent) UACC-62
Protocol: as §3, §4

UO-31 = assay: NCI-60 single dose screen, UO-31; format: cell-based; conditions: Homo sapiens, Renal cancer, single concentration 10^−5 M, read-out: IGP (inhibition growth percent) UO-31
Protocol: as §3, §4

PC-3 = assay: NCI-60 single dose screen, PC-3; format: cell-based; conditions: Homo sapiens, Prostate cancer, single concentration 10^−5 M, read-out: IGP (inhibition growth percent) PC-3
Protocol: as §3, §4

MCF-7 = assay: NCI-60 single dose screen, MCF-7; format: cell-based; conditions: Homo sapiens, MCF7; Breast cancer; single concentration 10^−5 M; read-out: IGP (inhibition growth percent) MCF-7
Protocol: as §3, §4

[1] = Metabolic stability in human liver microsomes with NADPH; format: in vitro ADME; conditions: pooled human liver microsomes, pH 7.4, human liver microsomes 0.5 mg/cm^3, NADPH 1 mM, 10 μM compound, 37 °C, read-out: in vitro metabolic half-life t1/2
Protocol: Selected derivatives were submitted to metabolic stability study to assess their ability to remain unchanged in the presence of human metabolic enzymes. Human liver microsomes were used as they are a rich source of all common CYP isoenzymes. In vitro incubations were performed in the presence of NADPH as a cofactor and the disappearance of a derivative was followed using LC–MS technique. The in vitro metabolic half-life values are gathered in Fig. 3.
Stock solutions of studied compounds were prepared at concentration of 10 mM in DMSO. […] Incubation mixture contained 10 μM of a studied derivative, 1 mM of NADPH (Sigma-Aldrich) and 0.5 mg/cm^3 of pooled human liver microsomes (HLM, Sigma-Aldrich) in potassium phosphate buffer (0.1 M, pH 7.4). Incubation was carried out in thermostat at 37 °C and started by addition of studied compound. 50 mm^3 samples were taken at starting point and after 5, 15, 30, 45, and 60 min. Enzymatic reaction was terminated by the addition of the equal volume of ice-cold acetonitrile. Incubations were performed in triplicates, the average t1/2 and standard deviation was calculated. Control incubations were performed without NADPH to assess chemical instability. After collection, samples were immediately centrifuged (10 min, 10,000 rpm) and resulted supernatant was directly analyzed or kept in − 80 °C until LC–MS analysis. Natural logarithm of a compound over IS peak area ratio was plotted versus incubation time. Metabolic half-time (t1/2) was calculated from the slope of the linear regression.
LC–MS analysis was performed on an Agilent 1260 system coupled to SingleQuad 6120 mass spectrometer (Agilent Technologies, Santa Clara, CA, USA). Poroshell EC-C18 (2.1 mm × 150 mm, 2.7 μm, Agilent Technologies, Santa Clara, CA, USA) was used in reversed-phase mode with gradient elution starting with 5% of phase A (10 mM ammonium formate in water) and 95% of phase B (10 mM ammonium formate in acetonitrile–water mixture, 95:5 v/v). […] Total analysis time was 15 min at 40 °C, flow rate was 1 cm^3/min and the injection volume was 5 mm^3. The mass spectrometer was equipped with electrospray ion source and operated in positive ionization. Mass analyzer was set individually to each compound to detect [M+H]^+ protonated molecule. MSD parameters of the ESI source were as follows: nebulizer pressure 35 psig (N2), drying gas […] (N2), drying gas temperature 300 °C, capillary voltage 3 kV, fragmentor voltage 150 V.

HOP-92 = assay: NCI-60 single dose screen, HOP-92; format: cell-based; conditions: Homo sapiens, NSCLC, single concentration 10^−5 M, read-out: IGP (inhibition growth percent) HOP-92
Protocol: as §3, §4

[2] = Table 4, repeats Table 1 values without SD and unit

Compound	IC50 (HCT-116 (colon cancer)) [µM]	IC50 (HeLa (cervical cancer); MTT, 72 h, mean ± SD) [µM]	IC50 (HeLa (cervical cancer); [2]) [µM]	IC50 (MCF-7 (breast cancer)) [µM]	inhibition at 10 µM (MOLT-4) [%]	inhibition at 10 µM (RPMI-8226) [%]	inhibition at 10 µM (SR) [%]	inhibition at 10 µM (A549/ATCC) [%]	inhibition at 10 µM (EKVX) [%]	inhibition at 10 µM (NCI-H522) [%]	inhibition at 10 µM (HCT-116) [%]	inhibition at 10 µM (UACC-62) [%]	inhibition at 10 µM (UO-31) [%]	inhibition at 10 µM (PC-3) [%]	inhibition at 10 µM (MCF-7) [%]	half-life at 10 μM [1] [min]	melting point	inhibition at 10 µM (HOP-92) [%]
Cc1cc(S(=O)(=O)Nc2nc(C)c3ccccc3n2)c(SCc2cc3c(cc2Cl)OCO3)cc1Cl [Compound 11, 4-Chloro-2-(6-chlorobenzo[1,3]dioxol-5-ylmethylthio)-5-methyl-N-(4-methylquinazolin-2-yl)benzenesulfonamide]	46 ± 1	58 ± 2	58	57 ± 2	20	32	3	34	17	19	30	23	15	23	4	56.8		
Cc1cc(S(=O)(=O)Nc2nc(C)c3ccccc3n2)c(SCC(N)=O)cc1Cl [Compound 13, 2-Carbamoylmethylthio-4-chloro-5-methyl-N-(4-methylquinazolin-2-yl)benzenesulfonamide]	260 ± 5	320 ± 22		440 ± 4	11		12		5	4			8		6	75.4	232 to 235 °C (dec.)	
CCOC(=O)CSc1cc(Cl)c(C)cc1S(=O)(=O)Nc1nc(C)c2ccccc2n1 [Compound 15, 4-Chloro-2-(2-ethoxy-2-oxoethylthio)-5-methyl-N-(4-methylquinazolin-2-yl)benzenesulfonamide]	110 ± 2	230 ± 7		160 ± 6													192 to 194 °C	
CCOC(=O)CSc1cc(Cl)c(C)cc1S(=O)(=O)Nc1nc(-c2ccccc2)c2ccccc2n1 [Compound 16, 4-Chloro-2-(2-ethoxy-2-oxoethylthio)-5-methyl-N-(4-phenyl-quinazolin-2-yl)benzenesulfonamide]	62 ± 1	74 ± 4	74	105 ± 3													162 to 165 °C	
Cc1nc(NS(=O)(=O)c2cc(C(=O)Nc3ccccc3)c(Cl)cc2SCc2ccccc2)nc2ccccc12 [Compound 17, 2-Benzylthio-4-chloro-5-phenylcarbamoyl-N-(4-methylquinazolin-2-yl)benzenesulfonamide]	84 ± 3	72 ± 1	72	175 ± 10	9	22	12	11	18	12	5	14	24	3		16		20
Cc1nc(NS(=O)(=O)c2cc(C(=O)Nc3ccc(Cl)cc3)c(Cl)cc2SCc2ccccc2)nc2ccccc12 [Compound 21, 2-Benzylthio-4-chloro-5-(4-chlorophenylcarbamoyl)-N-(4-methylquinazolin-2-yl)benzenesulfonamide]	54 ± 1	71 ± 2	71	115 ± 2	7	12	3	8	8	20	4	6	22	8	5	37.7		8
